Data from US20250092065A1, “2-(INDAZOL-5-YL)-6-(PIPERIDIN-4-YL)-1,7-NAPHTHYRIDINE DERIVATIVES AND RELATED COMPOUNDS AS MODULATORS FOR SPLICING NUCLEIC ACIDS AND FOR THE TREATMENT OF PROLIFERATIVE DISEASES” (REMIX THERAPEUTICS INC., priority 2022, published 2025).
Structures can show the parent of a compound that is named as a salt. Where two headings read alike, the source gives them in different places.

Columns and labels:
HTT = test: HiBiT protein abundance assay, HTT (K562 HiBiT knock-in); assay type: cell-based, human; settings: HiBiT knock-in K562 cells, 24 hours, top dose 10 μM
In short: (§1)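 Endogenously HiBiT-tagged K562 lines were treated for 24 h at 37 °C with 10-point 3-fold dilutions (top 10 μM final, DMSO ≤0.25%). Lytic LgBiT complementation luminescence was normalized between unmodified K562 (PC) and DMSO-treated tagged cells (NC); IC50 was interpolated at 50% from a four-parameter logistic fit.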

MYB mRNA = test: RT-qPCR splicing assay, MYB mRNA canonical (CJ) and alternative (AJ) junction; assay type: cell-based, human; settings: Homo sapiens; for AC50: MYB alternative junction mRNA, read-out: MYB AJ (increase in AJ mRNA, AC50)
In short: (§2)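 Canonical and alternative-exon junction isoforms were quantified by RT-qPCR in cell lysates, with ΔCt against a housekeeper (GAPDH/GUSB/PPIA), then ΔΔCt vs DMSO, converted to 2^(−ΔΔCt) and percent response. K562 or A673 cells were exposed for 24 h to 11 concentrations (3-fold, top final 10 uM).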

SMN2 mRNA = test: RT-qPCR splicing assay, SMN2 mRNA; assay type: cell-based, human; settings: Homo sapiens, canonical junction qPCR panel, Table 4; read-out: SMN2 IC50 (decrease in CJ mRNA levels)
In short: as §2

MYB = test: HiBiT protein abundance assay, MYB (K562 HiBiT knock-in); assay type: cell-based, human; settings: HiBiT knock-in K562 cells, 24 hours, top dose 10 μM
In short: as §1

K562 cells = test: Cell Titer Glo 2.0 cell viability (toxicity) assay, K562; settings: 500 cells/well, 72 hours
[1] = MYB canonical junction mRNA, RT-qPCR, read-out: MYB CJ (decrease in CJ mRNA levels, IC50)
[2] = canonical junction qPCR panel, Table 4, read-out: MYB IC50 (decrease in CJ mRNA levels)

| SMILES | IC50 (HTT) [µM] | AC50 (MYB mRNA; RT-qPCR) [µM] | IC50 (MYB mRNA; [1]) [µM] | IC50 (MYB mRNA; [2]) [µM] | IC50 (SMN2 mRNA) [µM] | IC50 (MYB) [µM] | Effect of Exemplary Compounds on Cell Viability, K562 (K562 cells) |
| --- | --- | --- | --- | --- | --- | --- | --- |
| Cc1cc(N2C[C@@H](C)N[C@@H](C)C2)cc2c(Cl)cc(-c3cc4cn(C)nc4c(F)c3O)nc12 [Compound 723, 5-{4-chloro-6-[(3R,5S)-3,5-dimethylpiperazin-1-yl]-8-methylquinolin-2-yl}-7-fluoro-2-methylindazol-6-ol] | < 0.1 | < 0.1 | < 0.1 | < 0.1 | < 0.1 | < 0.1 | A (A represents <100 nM) |
| CNC(=O)c1nc(-c2cc3cn(C)nc3c(F)c2O)nc2ccc(N3CCNC4(CC4)C3)cc12 [Compound 728, 6-{4,7-diazaspiro[2.5]octan-7-yl}-2-(7-fluoro-6-hydroxy-2-methylindazol-5-yl)-N-methylquinazoline-4-carboxamide] | 0.1 to 1 | < 0.1 | < 0.1 | < 0.1 | < 0.1 | < 0.1 | A (A represents <100 nM) |
| CNC(=O)c1nc(-c2cc3cn(C)nc3c(F)c2O)nc2ccc(N3CC[C@@H](NC)C3)cc12 [Compound 729, 2-(7-fluoro-6-hydroxy-2-methylindazol-5-yl)-N-methyl-6-[(3R)-3-(methylamino)pyrrolidin-1-yl]quinazoline-4-carboxamide] | < 0.1 | < 0.1 | < 0.1 | < 0.1 | < 0.1 | < 0.1 | A (A represents <100 nM) |
| C[C@@H]1CN(c2ccc3nc(-c4cc5cn(C)nc5c(F)c4O)nc(-c4nccs4)c3c2)C[C@H](C)N1 [Compound 732, 5-{6-[(3R,5S)-3,5-dimethylpiperazin-1-yl]-4-(1,3-thiazol-2-yl)quinazolin-2-yl}-7-fluoro-2-methylindazol-6-ol] | 1 to 10 | > 10 | 1 to 10 | 1 to 10 | 0.1 to 1 | 1 to 10 | B (B represents 100-1000 nM) |
| C[C@@H]1CN(c2ccc3nc(-c4cc5cn(C)nc5c(F)c4O)nc(C(=O)NCCO)c3c2)C[C@H](C)N1 [Compound 737, 6-[(3R,5S)-3,5-dimethylpiperazin-1-yl]-2-(7-fluoro-6-hydroxy-2-methylindazol-5-yl)-N-(2-hydroxyethyl)quinazoline-4-carboxamide] | 1 to 10 | 0.1 to 1 | 0.1 to 1 | 0.1 to 1 | < 0.1 | 0.1 to 1 | A (A represents <100 nM) |
| CNC(=O)c1nc(-c2cc3cn(C)nc3cc2O)nc2ccc(N3CCC(N(C)C)CC3)cc12 [Compound 742, 6-[4-(dimethylamino)piperidin-1-yl]-2-(6-hydroxy-2-methylindazol-5-yl)-N-methylquinazoline-4-carboxamide] | 1 to 10 | 0.1 to 1 | 0.1 to 1 | 0.1 to 1 | < 0.1 | 0.1 to 1 | A (A represents <100 nM) |
| C[C@@H]1CN(c2ccc3nc(-c4cc5cn(C)nc5c(F)c4O)ncc3c2)C[C@H](C)N1 [Compound 743, 5-{6-[(3R,5S)-3,5-dimethylpiperazin-1-yl]quinazolin-2-yl}-7-fluoro-2-methylindazol-6-ol] | 1 to 10 | > 10 | 1 to 10 | 1 to 10 | 1 to 10 | 1 to 10 | C (C represents 1000-9999 nM) |
| C[C@H]1CN(c2ccc3nc(-c4cc5cn(C)nc5c(F)c4O)ncc3c2)C[C@H](C)N1 [Compound 744, 5-{6-[(3S,5S)-3,5-dimethylpiperazin-1-yl]quinazolin-2-yl}-7-fluoro-2-methylindazol-6-ol] | < 0.1 | < 0.1 | < 0.1 | < 0.1 | < 0.1 | < 0.1 | A (A represents <100 nM) |
| C[C@@H]1CN(c2ccc3nc(-c4cc5cn(C)nc5c(F)c4O)ncc3c2)C[C@@H](C)N1 [Compound 745, 5-{6-[(3R,5R)-3,5-dimethylpiperazin-1-yl]quinazolin-2-yl}-7-fluoro-2-methylindazol-6-ol] | 0.1 to 1 | < 0.1 | < 0.1 | < 0.1 | < 0.1 | < 0.1 | A (A represents <100 nM) |
| CN[C@@H]1CCN(c2cc3c(Cl)cc(-c4cc5cn(C)nc5c(C)c4O)nc3cc2C)C1 [Compound 748, 5-{4-chloro-7-methyl-6-[(3R)-3-(methylamino)pyrrolidin-1-yl]quinolin-2-yl}-2,7-dimethylindazol-6-ol] | > 10 | 1 to 10 | 0.1 to 1 | 0.1 to 1 | 0.1 to 1 | 0.1 to 1 | B (B represents 100-1000 nM) |
| CN[C@H]1CCN(c2cc3c(Cl)cc(-c4cc5cn(C)nc5c(C)c4O)nc3cc2C)C1 [Compound 749, 5-{4-chloro-7-methyl-6-[(3S)-3-(methylamino)pyrrolidin-1-yl]quinolin-2-yl}-2,7-dimethylindazol-6-ol] | > 10 | 0.1 to 1 | 0.1 to 1 | 0.1 to 1 | < 0.1 | 0.1 to 1 | B (B represents 100-1000 nM) |
| Cn1cc2cc(-c3ncc4cc(N5CCC(N6CCC6)CC5)ccc4n3)c(O)c(F)c2n1 [Compound 750, 5-{6-[4-(azetidin-1-yl)piperidin-1-yl]quinazolin-2-yl}-7-fluoro-2-methylindazol-6-ol] | 0.1 to 1 | 0.1 to 1 | < 0.1 | < 0.1 | < 0.1 | 0.1 to 1 | B (B represents 100-1000 nM) |
| C[C@@H]1CN(c2ccc3nc(-c4cc5cn(C)nc5cc4O)ncc3c2)C[C@H](C)N1 [Compound 751, 5-{6-[(3R,5S)-3,5-dimethylpiperazin-1-yl]quinazolin-2-yl}-2-methylindazol-6-ol hydrochloride] | > 10 | 0.1 to 1 | 0.1 to 1 | 0.1 to 1 | < 0.1 | 0.1 to 1 | B (B represents 100-1000 nM) |
| C[C@H]1CN(c2ccc3nc(-c4cc5cn(C)nc5cc4O)ncc3c2)C[C@H](C)N1 [Compound 752, 5-{6-[(3S,5S)-3,5-dimethylpiperazin-1-yl]quinazolin-2-yl}-2-methylindazol-6-ol] | 0.1 to 1 | < 0.1 | < 0.1 | < 0.1 | < 0.1 | < 0.1 | B (B represents 100-1000 nM) |
| C[C@@H]1CN(c2ccc3nc(-c4cc5cn(C)nc5cc4O)ncc3c2)C[C@@H](C)N1 [Compound 753, 5-{6-[(3R,5R)-3,5-dimethylpiperazin-1-yl]quinazolin-2-yl}-2-methylindazol-6-ol] | 0.1 to 1 | 0.1 to 1 | 0.1 to 1 | 0.1 to 1 | < 0.1 | 0.1 to 1 | A (A represents <100 nM) |
| CCN(CC)C1CCN(c2ccc3nc(-c4cc5cn(C)nc5c(F)c4O)ncc3c2)CC1 [Compound 756, 5-{6-[4-(diethylamino)piperidin-1-yl]quinazolin-2-yl}-7-fluoro-2-methylindazol-6-ol] | 0.1 to 1 | 0.1 to 1 | 0.1 to 1 | 0.1 to 1 | < 0.1 | 0.1 to 1 | B (B represents 100-1000 nM) |
